Test systems include SF-268 CNS; SF-539 CNS; COLO 205 colon; ACHN renal; SW-620 colon; U251 CNS; RXF 393 renal; SN12C renal; TK-10 renal; HOP-92 NSCLC.
Assay in all cases: growth of human tumour cells (NCI), 48 h

“And” between values parts separate entries of the source, which are not always exact repeats. Identical values can stand only once.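 Test compounds were applied to cells in 96-well plates for 48 hours at 5 doses. At the GI50, growth is halved. TGI denotes the concentration required for complete inhibition of growth.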

As to `O=C(Nc1ccc(OC(F)(F)F)cc1)c1sccc1NCc1ccnc2ccccc12`, the GI50 in the assay on SF-268 CNS was 5.26 µM; in the assay with SF-539 CNS it was 4.3 µM; with COLO 205 colon, 3.74 µM; with ACHN renal, 2.56 µM; in the assay on SW-620 colon, 5.03 µM; with U251 CNS, 6.92 µM. Further, the GI50 with RXF 393 renal is 1.8 µM; in the assay with SN12C renal, 2.97 µM; in the assay with TK-10 renal it was 4.87 µM; in the assay on HOP-92 NSCLC, 2.5 µM. The TGI with SF-268 CNS is over 100 µM; in the assay on SF-539 CNS, over 100 µM; in the assay with COLO 205 colon it was 13.8 µM; in the assay on ACHN renal it was over 100 µM; with SW-620 colon it was over 100 µM; with U251 CNS, over 100 µM. In addition, the TGI with RXF 393 renal was 6.96 µM; in the assay with SN12C renal, over 100 µM; in the assay with TK-10 renal, 98.6 µM; in the assay on HOP-92 NSCLC, 19 µM.

Regarding `CCc1nc(N)nc(N)c1-c1ccc([N+](=O)[O-])c(NCc2ccccc2)c1`, the TGI was 40.3 µM in the assay on SF-268 CNS; 39.3 µM in the assay on SF-539 CNS; 35 µM in the assay on COLO 205 colon; 30.5 µM with ACHN renal; 42.9 µM with SW-620 colon; 30.1 µM in the assay with U251 CNS. In addition, the TGI turned out to be 52.7 µM in the assay with RXF 393 renal, 44.5 µM with SN12C renal, 53.2 µM in the assay with TK-10 renal and 25.9 µM with HOP-92 NSCLC.

In the case of `N#CC(C#N)SCc1ccccc1`, the TGI in the assay on SF-268 CNS is over 100 µM; in the assay with SF-539 CNS, 13.1 µM; with COLO 205 colon, over 33.2 µM; in the assay with ACHN renal, over 100 µM; in the assay on SW-620 colon, over 100 µM; in the assay on U251 CNS, 56.6 µM. Further, the TGI with RXF 393 renal was 79 µM; with SN12C renal it was over 100 µM; in the assay on TK-10 renal, over 100 µM; in the assay on HOP-92 NSCLC, over 87.4 µM.

Turning to `COc1ccc([C@H]2CC(=O)N3CCCC3N2)cc1` (stereo not given in full), the TGI in the assay on SF-268 CNS, in the assay with SF-539 CNS, in the assay on COLO 205 colon, in the assay on ACHN renal, with SW-620 colon and in the assay with U251 CNS was over 100 µM in each case. Besides, the TGI in the assay with RXF 393 renal, in the assay on SN12C renal, with TK-10 renal and in the assay with HOP-92 NSCLC was over 100 µM each time.

Take `COC1/C=C/OC2(C)Oc3c(C)c(O)c4c(c3C2=O)C(=O)C=C(NC(=O)/C(C)=C\C=C\C(C)C(OC=O)C(C)C(O)C(C)C(OC(C)=O)C1C)C4=O` (stereo not given): the TGI with SF-268 CNS came to 37.1 µM; with SF-539 CNS it was 32.9 µM; with COLO 205 colon it was 18 µM; in the assay on ACHN renal, 21.5 µM; in the assay on SW-620 colon it was 14 µM; with U251 CNS, 38.2 µM. The TGI was 19 µM in the assay with RXF 393 renal, 29.5 µM in the assay with SN12C renal, 30.4 µM with TK-10 renal and 28.8 µM in the assay with HOP-92 NSCLC.

Consider `NS(=O)(=O)c1ccc(N2Cc3cc(Cl)ccc3OC3=C2C(=O)N(CC2CCCCC2)C3=O)cc1`, for which the GI50 in the assay with SF-268 CNS was 1.22 µM; in the assay on SF-539 CNS it was 1.47 µM; in the assay on COLO 205 colon, 0.716 µM; in the assay on ACHN renal, 0.286 µM; with SW-620 colon it was 0.202 µM; with U251 CNS, 1.3 µM. In addition, the GI50 with RXF 393 renal is 0.495 µM; with SN12C renal, 1.01 µM; in the assay on TK-10 renal, 1.22 µM; with HOP-92 NSCLC, 1.31 µM. The TGI in the assay on SF-268 CNS turned out to be 2.69 µM; in the assay on SF-539 CNS, 2.82 µM; in the assay on COLO 205 colon, 2.28 µM; in the assay on ACHN renal, 0.883 µM; in the assay with SW-620 colon it was 0.445 µM; in the assay with U251 CNS, 2.65 µM. Besides, the TGI in the assay with RXF 393 renal was 1.77 µM; in the assay on SN12C renal it was 2.57 µM; in the assay with TK-10 renal it was 2.48 µM; in the assay on HOP-92 NSCLC, 2.67 µM.

For the compound `COc1cc2cc(Oc3ccc(NC(=O)c4cccc(C(F)(F)F)c4)cc3)c(C)nc2cc1OC`, the GI50 with SF-268 CNS was over 100 µM; in the assay with SF-539 CNS, 8.35 µM; in the assay on COLO 205 colon it was 4.65 µM; with ACHN renal, 3.6 µM; in the assay with SW-620 colon, 10.2 µM; in the assay with U251 CNS, 4.44 µM. The GI50 in the assay with RXF 393 renal is 6.07 µM; in the assay on SN12C renal it was 6.39 µM; in the assay with TK-10 renal it was 5.18 µM; in the assay on HOP-92 NSCLC, 3.08 µM. For the same compound, the TGI in the assay on SF-268 CNS, in the assay on SF-539 CNS, in the assay with COLO 205 colon, in the assay with ACHN renal, in the assay on SW-620 colon and with U251 CNS was over 100 µM throughout. Also, the TGI in the assay on RXF 393 renal is over 100 µM; in the assay with SN12C renal, over 100 µM; in the assay with TK-10 renal, over 100 µM; in the assay on HOP-92 NSCLC, 33.2 µM.

As for `CN1CCCN(CCNc2nccc(-c3c(-c4cccc(O)c4)nc4sccn34)n2)S1(=O)=O`, the GI50 with SF-268 CNS was 17.7 µM; with SF-539 CNS it was 18.7 µM and 22.2 µM; in the assay with COLO 205 colon, 0.423 µM and 0.477 µM; with ACHN renal, 2.72 µM and 2.91 µM; with SW-620 colon it was 18.7 µM and 19.1 µM; in the assay on U251 CNS, 8.99 µM and 11.9 µM. Also, the GI50 in the assay on RXF 393 renal is 5.26 µM and 2.72 µM; with SN12C renal, 8.55 µM and 6.23 µM; in the assay on TK-10 renal, 13 µM and 11.6 µM; in the assay on HOP-92 NSCLC, 12.1 µM and 16 µM. Besides, the TGI in the assay with SF-268 CNS is over 100 µM; in the assay with SF-539 CNS it was 75 µM and > 100 µM; in the assay on COLO 205 colon, 12.4 µM and 21.8 µM; in the assay on ACHN renal, 75 µM and > 100 µM; in the assay with SW-620 colon, 75 µM and > 100 µM; in the assay on U251 CNS, 50.4 µM and > 51.1 µM. Also, the TGI with RXF 393 renal was 31 µM and 21.6 µM; in the assay on SN12C renal it was 75 µM and > 100 µM; in the assay on TK-10 renal, 64.6 µM and 73.2 µM; in the assay with HOP-92 NSCLC it was 51.6 µM and 77.5 µM.

As to `CC(C)(C)OC(=O)NCC(C#N)CNC(=O)OC(C)(C)C`, the TGI in the assay on SF-268 CNS, in the assay on SF-539 CNS, in the assay with COLO 205 colon, with ACHN renal, in the assay on SW-620 colon and in the assay with U251 CNS was over 100 µM in each case. Also, the TGI in the assay with RXF 393 renal, with SN12C renal, in the assay with TK-10 renal and in the assay on HOP-92 NSCLC was over 100 µM in each case.

Take `CCOC(=O)c1c(NC(=O)c2ccc(C(C)C)cc2)sc2c(CN(C)C)c(O)ccc12`: the GI50 was 1.98 µM in the assay with SF-268 CNS; 1.74 µM with SF-539 CNS; 2.06 µM in the assay with COLO 205 colon; 3.03 µM in the assay with ACHN renal; 1.7 µM in the assay with SW-620 colon; 2.59 µM with U251 CNS. Further, the GI50 in the assay on RXF 393 renal was 1.74 µM; with SN12C renal, 4.53 µM; in the assay with TK-10 renal, 3 µM; in the assay with HOP-92 NSCLC it was 1.44 µM. For the same compound, the TGI with SF-268 CNS amounted to 4.06 µM; with SF-539 CNS it was 3.23 µM; with COLO 205 colon, 4.5 µM; in the assay with ACHN renal, 9.24 µM; in the assay with SW-620 colon, 3.41 µM; with U251 CNS, 7.13 µM. Besides, the TGI in the assay on RXF 393 renal stood at 3.39 µM; with SN12C renal it was 17.9 µM; with TK-10 renal, 9.39 µM; in the assay with HOP-92 NSCLC, 3.1 µM.

As for `COc1cc(/C=C2\CN(C)CC3=C2Nc2nc(SC)[nH]c(=O)c2C3c2cc(OC)c(OC)c(OC)c2)cc(OC)c1OC` (stereo not given), the GI50 is 1.66 µM with SF-268 CNS; 3.64 µM in the assay on SF-539 CNS; 2.11 µM in the assay on COLO 205 colon; 1.93 µM in the assay with ACHN renal; 2 µM in the assay with SW-620 colon; 1.76 µM with U251 CNS. Also, the GI50 in the assay with RXF 393 renal was 1.81 µM; in the assay on SN12C renal, 2.98 µM; in the assay with TK-10 renal, 6.06 µM; in the assay on HOP-92 NSCLC, 3.4 µM. The TGI turned out to be 3.4 µM in the assay with SF-268 CNS; 15.6 µM with SF-539 CNS; 4.73 µM with COLO 205 colon; 3.55 µM with ACHN renal; 4.41 µM in the assay on SW-620 colon; 4.14 µM with U251 CNS. Moreover, the TGI in the assay with RXF 393 renal came to 3.45 µM; in the assay on SN12C renal, 15.5 µM; in the assay on TK-10 renal it was 18.9 µM; in the assay on HOP-92 NSCLC it was 10.9 µM.

Consider `CC(C)n1c(/C=C/[C@@H](O)C[C@@H](O)CC(=O)O)c(-c2ccc(F)cc2)c2ccccc21`, for which the GI50 with SF-268 CNS was 0.666 µM and 0.818 µM; in the assay with SF-539 CNS, 25.7 µM and 10.5 µM; with COLO 205 colon, 4.44 µM and 6.2 µM; in the assay with ACHN renal, 0.725 µM and 0.558 µM; in the assay with SW-620 colon, 3.76 µM and 5.15 µM; with U251 CNS, 0.455 µM and 0.558 µM. Besides, the GI50 was 3.54 µM and 2.12 µM with RXF 393 renal; 0.7 µM and 0.598 µM in the assay with SN12C renal; 33.7 µM and 7.85 µM with TK-10 renal; 0.0329 µM and 0.0368 µM with HOP-92 NSCLC. Also, the TGI with SF-268 CNS is over 100 µM; with SF-539 CNS, over 100 µM; with COLO 205 colon, 15.3 µM and > 65.1 µM; with ACHN renal it was over 100 µM; in the assay with SW-620 colon, over 100 µM; with U251 CNS, over 100 µM. The TGI is > 100 µM and 18.9 µM in the assay with RXF 393 renal; over 100 µM with SN12C renal; over 100 µM in the assay with TK-10 renal; 0.282 µM and 0.183 µM in the assay with HOP-92 NSCLC.

Consider `CSc1ccc(C2=Nn3c(nnc3-c3ccc(F)c(Cl)c3)SC2)cc1`, for which the GI50 in the assay with SF-268 CNS was 75.7 µM; with SF-539 CNS, 10.1 µM; in the assay on COLO 205 colon it was 25.9 µM; in the assay with ACHN renal it was 13.7 µM; in the assay with SW-620 colon it was 11.6 µM; with U251 CNS it was 3.85 µM. The GI50 is 4.46 µM in the assay with RXF 393 renal, 2.67 µM in the assay with SN12C renal, 7.52 µM with TK-10 renal and 4 µM in the assay on HOP-92 NSCLC. Also, the TGI with SF-268 CNS is over 100 µM; in the assay on SF-539 CNS it was 26.7 µM; with COLO 205 colon, over 100 µM; in the assay with ACHN renal it was 33.6 µM; in the assay on SW-620 colon it was over 100 µM; in the assay on U251 CNS, 13.8 µM. The TGI was 19.4 µM in the assay on RXF 393 renal, 9.78 µM with SN12C renal, 21.2 µM with TK-10 renal and 14.8 µM with HOP-92 NSCLC.

The values are drawn from PubChem BioAssay (NCI).
